Measured values: PubChem BioAssay (NCI)
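Method: 48-hour compound exposure of cells in 96-well plates, five concentrations, linear interpolation of endpoints. Abbreviation: GI50, concentration required for 50% inhibition of growth. TGI is the concentration that stops growth completely.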

Key:
Experiment in all cases: NCI-60 cell line screen, 48 h
[1] = test system: SF-295 CNS
[2] = test system: LOX IMVI melanoma
[3] = test system: KM12 colon
[4] = test system: UACC-62 melanoma
[5] = test system: MDA-MB-231 breast
[6] = test system: MOLT-4 leukemia
[7] = test system: UACC-257 melanoma
[8] = test system: K-562 leukemia
[9] = test system: M14 melanoma
[10] = test system: SK-MEL-2 melanoma

| Compound | TGI [1] [µM] | TGI [2] [µM] | TGI [3] [µM] | TGI [4] [µM] | TGI [5] [µM] | TGI [6] [µM] | TGI [7] [µM] | TGI [8] [µM] | TGI [9] [µM] | TGI [10] [µM] | GI50 [2] [µM] | GI50 [3] [µM] | GI50 [4] [µM] | GI50 [5] [µM] | GI50 [6] [µM] | GI50 [7] [µM] | GI50 [8] [µM] | GI50 [9] [µM] | GI50 [10] [µM] | GI50 [1] [µM] |
| --- | --- | --- | --- | --- | --- | --- | --- | --- | --- | --- | --- | --- | --- | --- | --- | --- | --- | --- | --- | --- |
| COc1ccc(C2=[S+]C(c3ccccc3)(c3ccccc3)c3ccccc32)cc1 | 88.8 | 31.9 | 31.1 | 53.6 | 61.1 | 61 | 46.9 | > 100 | 31.4 | 33.3 |  |  |  |  |  |  |  |  |  |  |
| O=c1nc2ccc([N+](=O)[O-])cc2[n+]([O-])[nH]1 | > 100 | > 100 | > 100 | > 100 | > 100 | > 100 | > 100 | > 100 | > 100 | > 100 |  |  |  |  |  |  |  |  |  |  |
| C/C(=N\NC(=O)c1ccc(Cl)cc1)c1nc2ncccc2[nH]1 | > 100 | 57.8 | > 100 | 55.4 | > 100 | 90.6 | 79.9 | > 100 | > 100 | > 100 |  |  |  |  |  |  |  |  |  |  |
| COc1cc(-c2ccc(N=Nc3ccc4c(S(=O)(=O)O)cc(S(=O)(=O)O)c(N)c4c3O)c(OC)c2)ccc1N=Nc1ccc2c(S(=O)(=O)O)cc(S(=O)(=O)O)c(N)c2c1O | > 100 | > 100 | > 100 | > 100 |  | > 100 | > 100 | > 100 |  | > 100 |  |  |  |  |  |  |  |  |  |  |
| N#[N+]c1c([O-])c2ccccc2c2ccccc12 | > 100 | 86 | > 100 | 69.7 | > 100 | > 100 | > 100 | > 100 | > 100 | 93.4 |  |  |  |  |  |  |  |  |  |  |
| CCOC(=O)NC(Nc1cc(Cl)ccc1OC)(C(F)(F)F)C(F)(F)F |  | > 100 | > 100 | > 100 | > 100 | > 100 | > 100 | > 100 | > 100 | > 100 |  |  |  |  |  |  |  |  |  |  |
| c1ccc2c(c1)NCc1cc3ccccc3nc1O2 | > 100 | > 100 | > 100 | > 100 |  | > 100 | > 100 | > 100 |  | > 100 |  |  |  |  |  |  |  |  |  |  |
| CCOC(=O)/C=C/c1c(C)[nH]c(=O)[nH]c1=O | > 250 | > 250 | > 250 | > 250 |  | > 250 | > 250 | > 250 |  | > 250 |  |  |  |  |  |  |  |  |  |  |
| O=C1CCC[C@H]2O[C@@H](COC(=O)c3ccccc3)C[C@H]2O1 | > 100 |  | > 100 | > 100 | > 100 | > 100 | > 100 | > 100 | > 100 | > 100 |  |  |  |  |  |  |  |  |  |  |
| c1cc2c3c(c1)c1cc4c(cc1c[n+]3CC2)OCO4 | 13.1 | > 96.1 | 27.8 | 16 |  | 9.96 | 13.5 | 32.3 |  | 9.35 |  |  |  |  |  |  |  |  |  |  |
| Cc1ccc(Cl)cc1N=NC(=O)NNc1cc(Cl)ccc1C | > 100 |  | > 100 | 24.2 | 40.3 | > 100 |  | > 100 | 34.7 | 32.8 |  |  |  |  |  |  |  |  |  |  |
| O=C1C(CO)=C[C@H](O)[C@H]2O[C@@H]12 | 177 | > 393 | 219 | 215 |  | 355 | 387 | 439 |  | 345 |  |  |  |  |  |  |  |  |  |  |
| c1ccc2c(c1)c1ccccc1n2Cn1c2ccccc2c2ccccc21 | > 100 | > 100 | > 100 | > 100 | > 100 | > 100 | > 100 | > 100 | > 100 | > 100 |  |  |  |  |  |  |  |  |  |  |
| Cc1cn(-c2cccc(NC(=O)c3ccc(C)c(Nc4nccc(-c5cccnc5)n4)c3)c2)cn1 |  | 3.48 | 4.98 | 3.35 | 3.46 | 6.56 | 3 | 4.17 | 5.47 | 7.83 | 1.73 | 2.1 | 1.65 | 1.63 | 1.92 | 1.59 | 1.47 | 2.08 | 2.58 |  |
| COc1cccc2c1C(=O)c1c(O)c3c(c(O)c1C2=O)C[C@@](O)(C(=O)COC(=O)c1ccccc1)C[C@@H]3OC1CC(N)C(O)C(C)O1 (stereo partly specified) |  |  | 1.23 |  | 1.79 | 0.275 | 1.27 | 0.327 | 1.35 | 1.99 |  | 0.215 |  | 0.376 | 0.0302 | 0.262 | 0.104 | 0.21 | 0.563 |  |
| O=C(NN1C(=O)C(Cl)C1c1cccc([N+](=O)[O-])c1)c1ccccc1O (stereo unspecified) | > 100 |  | > 100 | > 100 |  | > 100 | > 100 | > 100 | > 100 | > 100 |  |  |  |  |  |  |  |  |  |  |
| Cc1cc(N/N=C/c2nc(-c3ccc(Cl)cc3)oc2C)c2cc(Br)ccc2n1 | 26.6 | 3.73 | 5.43 | 4.43 | 12 | 13.5 | 15 | 3.61 | 4.55 | 32.2 | 1.93 | 2.21 | 2.02 | 3.43 | 2.66 | 3.49 | 1.1 | 2.02 | 17.5 | 12.4 |
| C/C(=N\NC(=S)N1CCC(N2CCCCC2)CC1)c1ccccn1 | 7.12 | 8.28 | 9.53 | 10.7 | 3.57 | > 21 | 8.93 | > 100 | 3.8 | > 100 |  |  |  |  |  |  |  |  |  |  |
